IC50 data for seven compounds are collected here from US4797471A, “Peptide derivatives having an inhibitory action on hydroxylating enzymes, a process for their preparation, agents containing them, and their use” (Hoechst Aktiengesellschaft, priority 1985, dated 1989).

A word on the IC50: it is the concentration at which inhibition is half-maximal. High values mean a need for much substance, low ones inhibition by little substance.

The target in test [1] is Lysine hydroxylase. Nature of the test: Enzyme test: hydroxylation of underhydroxylated collagen, lysine hydroxylase inhibition. The class given is biochemical. The conditions noted are these: 50% inhibition of the enzyme reaction; Iron(II) ions, α-ketoglutarate and ascorbate. An excerpt:
(§1) The inhibitory action of the substances according to the invention, for example on collagen biosynthesis, can be tested in an enzyme test in analogy to the method of B. Peterkovsky and R. DiBlasio, Anal. Biochem. 66, 279-286 (1975). This entails enzymatic hydroxylation of underhydroxylated collagen in the presence of IronlII) ions, α-ketoglutarate and ascorbate. The enzymes which can be used are prolyl 4-hydroxylase, prolyl 3-hydroxylase or lysl hydroxylase in a cell-free test medium. The inhibitory action can also be measured in cell or tissue culture and is reported as 50% inhibition of the enzyme reaction (IC50).

In test [2] the target is Proline hydroxylase. Nature of the test: Enzyme test: hydroxylation of underhydroxylated collagen, proline hydroxylase inhibition. It counts as biochemical. As to conditions: 50% inhibition of the enzyme reaction; Iron(II) ions, α-ketoglutarate and ascorbate.
From the text: as §1

As to `CC(=O)N[C@@H](CCCNC(=O)c1cc(O)c(O)c(O)c1)C(=O)N1CCC[C@H]1C(=O)NCC(=O)O` [Ac--Orn(3,4,5-Trihydroxybenzoyl)-Pro--Gly--OH], the IC50 in test [1] was found to be 8 µM; in test [2], 29 µM.

As to `CC(=O)N[C@@H](CCCNC(=O)c1ccc(O)c(O)c1)C(=O)N1CCC[C@H]1C(=O)NCC(=O)O` [Ac--Orn(3,4-Dihydroxybenzoyl)-Pro--Gly--OH], the IC50 in test [1] was found to be 7 µM; in test [2] it was 72 µM.

In the case of `CC(=O)N[C@@H](CCCNC(=O)Cc1ccc(O)c(O)c1)C(=O)N1CCC[C@H]1C(=O)NCC(=O)O` [Ac--Orn(3,4-Dihydroxyphenylacetyl)-Pro--Gly--OH], the IC50 in test [1] was found to be 37 µM; in test [2], 140 µM.

In the case of `CC(=O)N1CCC[C@H]1C(=O)N[C@@H](CCCNC(=O)c1cc(O)c(O)c(O)c1)C(=O)NCC(=O)O` [Ac--Pro--Orn(3,4,5-Trihydroxybenzoyl)-Gly--OH], the IC50 worked out at 26 µM in test [1] and 17 µM in test [2].

For the compound `CC(=O)N1CCC[C@H]1C(=O)N[C@@H](CCCNC(=O)Cc1ccc(O)c(O)c1)C(=O)NCC(=O)O` [Ac--Pro--Orn(3,4-Dihydroxyphenylacetyl)-Gly--OH], the IC50 was found to be 70 µM in test [1] and 155 µM in test [2].

On to `CC(=O)N[C@@H](CCCNC(=O)c1cccc(O)c1O)C(=O)N1CCC[C@H]1C(=O)NCC(=O)O` [Ac-Orn(2,3-dihydroxybenzoyl)-Pro-Gly-OH], for which the figures for the IC50 in test [1] and in test [2] were 7 µM and 38 µM, respectively.

For `CC(=O)N1CCC[C@H]1C(=O)N[C@@H](CCCNC(=O)c1ccc(O)c(O)c1)C(=O)NCC(=O)O` [Ac-Pro-Orn(3,4-dihydroxybenzoyl)-Bly-OH], the half-maximal inhibitory concentration (IC50) in test [1] came to 39 µM; in test [2] it was 50 µM.
